Assay results published in US9452986B2, “6-heteroaryloxy- or 6-aryloxy-quinoline-2-carboxamides and method of use” (AbbVie Inc., priority 2014, dated 2016).
pIC50: −log10 of the molar value. Read-outs that look alike come from different tables or passages of the source.

Biological target: recombinant human Nav1.7 (Homo sapiens (Human), UniProt Q15858)
Assay: FRET-based membrane potential assay, recombinant human sodium channel Nav1.7
Assay type: cell-based
Conditions: read-out: FRET-Membrane Potential Nav1.7 IC50
How it was run: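 Channel activation used veratridine at its EC80, set by a dilution curve each experiment, together with Leiurus scorpion venom, added 3 min after compound. Membrane-potential ratio signals from FLIPR Tetra in HEPES-buffered HBSS were fitted to a four-parameter Hill equation for percent inhibition and IC50.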

[1] = HEK293 cells stably expressing recombinant human Nav1.7, veratridine + scorpion venom depolarization

Sequence of recombinant human Nav1.7 (Q15858 whole entry): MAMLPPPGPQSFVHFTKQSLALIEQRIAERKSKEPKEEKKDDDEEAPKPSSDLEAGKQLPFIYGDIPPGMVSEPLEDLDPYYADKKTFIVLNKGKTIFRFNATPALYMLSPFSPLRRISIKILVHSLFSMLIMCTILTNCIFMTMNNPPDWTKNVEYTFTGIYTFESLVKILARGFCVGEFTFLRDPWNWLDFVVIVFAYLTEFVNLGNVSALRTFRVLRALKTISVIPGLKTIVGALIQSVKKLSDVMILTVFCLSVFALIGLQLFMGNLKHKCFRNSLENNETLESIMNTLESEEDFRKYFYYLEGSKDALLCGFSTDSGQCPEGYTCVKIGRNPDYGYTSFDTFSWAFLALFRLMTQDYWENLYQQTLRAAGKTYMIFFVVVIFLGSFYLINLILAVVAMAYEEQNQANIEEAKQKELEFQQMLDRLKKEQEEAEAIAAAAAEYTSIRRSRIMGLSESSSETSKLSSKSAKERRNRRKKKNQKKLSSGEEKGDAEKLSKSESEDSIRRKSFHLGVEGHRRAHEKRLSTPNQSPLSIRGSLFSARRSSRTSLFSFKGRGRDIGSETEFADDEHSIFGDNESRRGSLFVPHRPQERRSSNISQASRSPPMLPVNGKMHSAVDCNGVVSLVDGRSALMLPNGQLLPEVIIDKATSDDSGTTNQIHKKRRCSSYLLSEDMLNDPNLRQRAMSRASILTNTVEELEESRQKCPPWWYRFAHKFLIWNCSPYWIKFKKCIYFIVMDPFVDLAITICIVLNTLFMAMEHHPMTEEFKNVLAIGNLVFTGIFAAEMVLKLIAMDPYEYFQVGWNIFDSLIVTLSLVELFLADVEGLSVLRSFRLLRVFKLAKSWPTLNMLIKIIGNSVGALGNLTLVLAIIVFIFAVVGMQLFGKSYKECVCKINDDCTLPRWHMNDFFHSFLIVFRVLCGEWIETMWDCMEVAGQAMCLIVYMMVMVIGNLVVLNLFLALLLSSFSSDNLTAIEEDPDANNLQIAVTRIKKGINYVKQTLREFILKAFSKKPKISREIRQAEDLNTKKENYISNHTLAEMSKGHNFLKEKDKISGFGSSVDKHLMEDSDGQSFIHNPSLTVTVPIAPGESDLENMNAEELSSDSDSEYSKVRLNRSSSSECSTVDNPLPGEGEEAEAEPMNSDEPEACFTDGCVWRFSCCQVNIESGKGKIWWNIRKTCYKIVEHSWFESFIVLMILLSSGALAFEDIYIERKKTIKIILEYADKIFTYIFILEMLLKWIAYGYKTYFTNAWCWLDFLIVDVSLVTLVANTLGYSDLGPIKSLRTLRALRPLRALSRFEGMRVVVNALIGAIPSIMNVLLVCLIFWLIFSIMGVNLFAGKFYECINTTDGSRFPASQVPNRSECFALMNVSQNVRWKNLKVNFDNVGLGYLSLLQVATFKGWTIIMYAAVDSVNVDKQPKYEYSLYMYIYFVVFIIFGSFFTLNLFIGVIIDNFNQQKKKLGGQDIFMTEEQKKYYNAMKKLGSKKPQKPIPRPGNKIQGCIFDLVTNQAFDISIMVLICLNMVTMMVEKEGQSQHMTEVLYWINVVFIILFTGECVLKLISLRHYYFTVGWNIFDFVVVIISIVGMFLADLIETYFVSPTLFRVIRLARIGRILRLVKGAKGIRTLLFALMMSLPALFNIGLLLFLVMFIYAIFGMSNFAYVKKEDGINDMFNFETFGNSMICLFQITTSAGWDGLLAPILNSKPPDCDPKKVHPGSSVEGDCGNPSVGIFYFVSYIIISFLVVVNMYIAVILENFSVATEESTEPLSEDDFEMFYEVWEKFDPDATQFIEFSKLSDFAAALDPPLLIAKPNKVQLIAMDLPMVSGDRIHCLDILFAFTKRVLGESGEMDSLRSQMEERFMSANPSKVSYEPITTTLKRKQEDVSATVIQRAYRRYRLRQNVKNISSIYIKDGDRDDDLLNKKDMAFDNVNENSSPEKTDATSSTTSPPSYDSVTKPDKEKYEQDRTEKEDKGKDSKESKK

| SMILES | pIC50 | pIC50 [1] |
| --- | --- | --- |
| CC(C)C(O)CNC(=O)c1ccc2cc(Oc3ccc(C#N)cc3)ccc2n1 (centres unmarked) [Example 135, 6-(4-cyanophenoxy)-N-(2-hydroxy-3-methylbutyl)quinoline-2-carboxamide] | 6.16 | – |
| O=C(NC[C@@H]1CCCN1)c1ccc2cc(Oc3ccc(C(F)(F)F)cn3)ccc2n1 [Example 363, N-[(2S)-pyrrolidin-2-ylmethyl]-6-{[5-(trifluoromethyl)pyridin-2-yl]oxy}quinoline-2-carboxamide] | – | 5.92 |
| O=C(c1ccc2cc(Oc3ccc(C(F)(F)F)cn3)ccc2n1)N1CCC(N2CCC2)C1 (centres unmarked) [Example 314, [3-(azetidin-1-yl)pyrrolidin-1-yl](6-{[5-(trifluoromethyl)pyridin-2-yl]oxy}quinolin-2-yl)methanone] | 6.66 | – |
| O=C(c1ccc2cc(Oc3ccc(C(F)(F)F)cn3)ccc2n1)N1CCC(N2C[C@H]3C[C@@H]2CO3)CC1 [Example 378, {4-[(1R,4R)-2-oxa-5-azabicyclo[2.2.1]hept-5-yl]piperidin-1-yl}(6-{[5-(trifluoromethyl)pyridin-2-yl]oxy}quinolin-2-yl)methanone] | – | 5.65 |
| CC(=O)N1CCN(C(=O)c2ccc3cc(Oc4ccc(C(F)(F)F)cn4)ccc3n2)CC1 [Example 218, 1-{4-[(6-{[5-(trifluoromethyl)pyridin-2-yl]oxy}quinolin-2-yl)carbonyl]piperazin-1-yl}ethanone] | – | < 4.70 |
| O=C(NCC(=O)N1CC[C@@H](O)C1)c1ccc2cc(Oc3ccc(C(F)(F)F)cn3)ccc2n1 [Example 559, N-{2-[(3R)-3-hydroxypyrrolidin-1-yl]-2-oxoethyl}-6-{[5-(trifluoromethyl)pyridin-2-yl]oxy}quinoline-2-carboxamide] | 5.52 | – |
| O=C(c1ccc2cc(Oc3ccc(C(F)(F)F)cn3)ccc2n1)N1CC(N2CCNCC2)C1 [Example 557, [3-(piperazin-1-yl)azetidin-1-yl](6-{[5-(trifluoromethyl)pyridin-2-yl]oxy}quinolin-2-yl)methanone] | 4.78 | – |
| CC(C)(O)CNC(=O)c1ccc2cc(Oc3ccc(C(F)F)cn3)ccc2n1 [Example 434, 6-{[5-(difluoromethyl)pyridin-2-yl]oxy}-N-(2-hydroxy-2-methylpropyl)quinoline-2-carboxamide] | – | 5.25 |
| CN1CC(NC(=O)c2ccc3cc(Oc4ccc(C(F)F)cn4)ccc3n2)CC1=O (centres unmarked) [Example 462, 6-{[5-(difluoromethyl)pyridin-2-yl]oxy}-N-(1-methyl-5-oxopyrrolidin-3-yl)quinoline-2-carboxamide] | 6.02 | – |
| N#CCCCN1CCN(C(=O)c2ccc3cc(Oc4ccc(C(F)(F)F)cn4)ccc3n2)CC1 [Example 472, 4-{4-[(6-{[5-(trifluoromethyl)pyridin-2-yl]oxy}quinolin-2-yl)carbonyl]piperazin-1-yl}butanenitrile] | – | 5.11 |
| O=C(c1ccc2cc(Oc3ccc(C(F)(F)F)nn3)ccc2n1)N1CCNCC1 [Example 246, piperazin-1-yl(6-{[6-(trifluoromethyl)pyridazin-3-yl]oxy}quinolin-2-yl)methanone] | – | 4.70 |
| O=C(c1ccc2cc(Oc3ccc(C(F)(F)F)cn3)ccc2n1)N1CCN2C[C@@H](F)C[C@@H]2C1 [Example 356, [(7S,8aR)-7-fluorohexahydropyrrolo[1,2-a]pyrazin-2(1H)-yl](6-{[5-(trifluoromethyl)pyridin-2-yl]oxy}quinolin-2-yl)methanone] | 5.47 | – |
| CN1CCN(C(=O)c2ccc3cc(Oc4ccc(C(F)(F)F)cn4)ccc3n2)CC1=O [Example 450, 1-methyl-4-[(6-{[5-(trifluoromethyl)pyridin-2-yl]oxy}quinolin-2-yl)carbonyl]piperazin-2-one] | – | 5.45 |
| O=C(c1ccc2cc(Oc3ccc(C(F)(F)F)cn3)ccc2n1)N1CCC2(CC1)OCCO2 [Example 240, 1,4-dioxa-8-azaspiro[4.5]dec-8-yl(6-{[5-(trifluoromethyl)pyridin-2-yl]oxy}quinolin-2-yl)methanone] | – | 5.70 |
| CCN1CCN(C(=O)c2ccc3cc(Oc4ccc(C(F)(F)F)cn4)ccc3n2)CC1 [Example 294, (4-ethylpiperazin-1-yl)(6-{[5-(trifluoromethyl)pyridin-2-yl]oxy}quinolin-2-yl)methanone] | – | 5.85 |
| N#Cc1ccc(Oc2ccc3nc(C(=O)N[C@H]4CCCC[C@@H]4O)ccc3c2)cc1 [Example 120, 6-(4-cyanophenoxy)-N-[(1S,2S)-2-hydroxycyclohexyl]quinoline-2-carboxamide] | 5.69 | – |
| O=C(c1ccc2cc(Oc3ccc(C(F)(F)F)cn3)ccc2n1)N1CCC2(C1)OCCO2 [Example 352, 1,4-dioxa-7-azaspiro[4.4]non-7-yl(6-{[5-(trifluoromethyl)pyridin-2-yl]oxy}quinolin-2-yl)methanone] | 5.48 | – |
| N#Cc1ccc(Oc2ccc3nc(C(=O)NC4CCS(=O)(=O)C4)ccc3c2)cc1 (centres unmarked) [Example 136, 6-(4-cyanophenoxy)-N-(1,1-dioxidotetrahydrothiophen-3-yl)quinoline-2-carboxamide] | 6.27 | – |

| SMILES | pIC50 | pIC50 [1] |
| --- | --- | --- |
| CN(CC(=O)NC1CC1)C(=O)c1ccc2cc(Oc3ccc(C(F)(F)F)nc3)ccc2n1 [Example 522, N-[2-(cyclopropylamino)-2-oxoethyl]-N-methyl-6-{[6-(trifluoromethyl)pyridin-3-yl]oxy}quinoline-2-carboxamide] | 4.97 | – |
| CO[C@@H]1CCN(C(=O)c2ccc3cc(Oc4ccc(C(F)(F)F)cn4)ccc3n2)C1 [Example 588, [(3R)-3-methoxypyrrolidin-1-yl](6-{[5-(trifluoromethyl)pyridin-2-yl]oxy}quinolin-2-yl)methanone] | 5.44 | – |
| CN1CCN(C(=O)c2ccc3cc(Oc4ccccn4)ccc3n2)CC1 [Example 77, (4-methylpiperazin-1-yl)[6-(pyridin-2-yloxy)quinolin-2-yl]methanone] | – | < 4.70 |
| CC(C)NC(=O)C1CN(C(=O)c2ccc3cc(Oc4ccc(C(F)(F)F)cn4)ccc3n2)CCN1 (centres unmarked) [Example 321, N-isopropyl-4-[(6-{[5-(trifluoromethyl)pyridin-2-yl]oxy}quinolin-2-yl)carbonyl]piperazine-2-carboxamide] | – | 5.09 |
| O=C(NCC1(O)CCOCC1)c1ccc2cc(Oc3ccc(C(F)(F)F)cn3)ccc2n1 [Example 362, N-[(4-hydroxytetrahydro-2H-pyran-4-yl)methyl]-6-{[5-(trifluoromethyl)pyridin-2-yl]oxy}quinoline-2-carboxamide] | – | 6.00 |
| O=C(c1ccc2cc(Oc3ccc(C(F)(F)F)nc3)ccc2n1)N1CCC(N2CCOCC2)CC1 [Example 526, [4-(morpholin-4-yl)piperidin-1-yl](6-{[6-(trifluoromethyl)pyridin-3-yl]oxy}quinolin-2-yl)methanone] | – | 5.51 |
| COCC1(F)CCN(C(=O)c2ccc3cc(Oc4ccc(C(F)(F)F)cn4)ccc3n2)CC1 [Example 618, [4-fluoro-4-(methoxymethyl)piperidin-1-yl](6-{[5-(trifluoromethyl)pyridin-2-yl]oxy}quinolin-2-yl)methanone] | 5.57 | – |
| O=C(NCC(=O)N1CCCC1)c1ccc2cc(Oc3ccc(C(F)(F)F)nc3)ccc2n1 [Example 513, N-[2-oxo-2-(pyrrolidin-1-yl)ethyl]-6-{[6-(trifluoromethyl)pyridin-3-yl]oxy}quinoline-2-carboxamide] | 6.04 | – |
| O=C(c1ccc2cc(Oc3ccc(C(F)(F)F)cn3)ccc2n1)N1CCN(S(=O)(=O)N2CCCCC2)CC1 [Example 184, [4-(piperidin-1-ylsulfonyl)piperazin-1-yl](6-{[5-(trifluoromethyl)pyridin-2-yl]oxy}quinolin-2-yl)methanone] | – | 6.03 |
| O=C(c1ccc2cc(Oc3ccc(C(F)(F)F)cn3)ccc2n1)N1CCN2C(=O)CCC2C1 (centres unmarked) [Example 288, 2-[(6-{[5-(trifluoromethyl)pyridin-2-yl]oxy}quinolin-2-yl)carbonyl]hexahydropyrrolo[1,2-a]pyrazin-6(2H)-one] | – | 5.10 |
| O=C(c1ccc2cc(Oc3ccc(C(F)(F)F)cn3)ccc2n1)N1CC2(COC2)C1 [Example 156, 2-oxa-6-azaspiro[3.3]hept-6-yl(6-{[5-(trifluoromethyl)pyridin-2-yl]oxy}quinolin-2-yl)methanone] | < 4.70 | – |
| CC1(C)C[C@@H](NC(=O)c2ccc3cc(Oc4ccc(C#N)cc4)ccc3n2)c2cc(F)ccc2O1 [Example 141, 6-(4-cyanophenoxy)-N-[(4R)-6-fluoro-2,2-dimethyl-3,4-dihydro-2H-chromen-4-yl]quinoline-2-carboxamide] | – | < 4.70 |
| O=C(c1ccc2cc(Oc3ccc(C(F)(F)F)cn3)ccc2n1)N1CCC(F)CC1 [Example 318, (4-fluoropiperidin-1-yl)(6-{[5-(trifluoromethyl)pyridin-2-yl]oxy}quinolin-2-yl)methanone] | – | 5.13 |
| O=C(c1ccc2cc(Oc3ccc(C(F)(F)F)cn3)ccc2n1)N1C[C@@H]2C[C@H](CO)[C@H]1C2 [Example 258, [(1R,4R,6S)-6-(hydroxymethyl)-2-azabicyclo[2.2.1]hept-2-yl](6-{[5-(trifluoromethyl)pyridin-2-yl]oxy}quinolin-2-yl)methanone] | – | 5.21 |
| O=C(c1ccc2cc(Oc3ccc(C(F)(F)F)nc3)ccc2n1)N1CCN[C@H](CO)C1 [Example 545, [(3S)-3-(hydroxymethyl)piperazin-1-yl](6-{[6-(trifluoromethyl)pyridin-3-yl]oxy}quinolin-2-yl)methanone] | – | 5.43 |
| O=C(NCC(=O)N1CCC(F)(F)C1)c1ccc2cc(Oc3ccc(C(F)(F)F)cn3)ccc2n1 [Example 565, N-[2-(3,3-difluoropyrrolidin-1-yl)-2-oxoethyl]-6-{[5-(trifluoromethyl)pyridin-2-yl]oxy}quinoline-2-carboxamide] | – | 5.46 |
| O=C(NCC(=O)N1CCCC1)c1ccc2cc(Oc3ccc(C(F)F)cn3)ccc2n1 [Example 456, 6-{[5-(difluoromethyl)pyridin-2-yl]oxy}-N-[2-oxo-2-(pyrrolidin-1-yl)ethyl]quinoline-2-carboxamide] | – | 6.05 |
